Data as given in patent publication US20120029187A1, “HALOALKYLSULFONANILIDE DERIVATIVE” (Nissan Chemical Industries, Ltd., priority 2009, published 2012).

What was measured:
Format in all cases: in vivo
common chickweed [1] = experiment: Test Example 3: herbicidal effects in soil treatment; conditions: dose 3.2 g/a
Method in brief: (§1)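 Seeds were sown in sterilized diluvial soil and covered with about 1.5 cm of soil. Compounds, formulated as emulsifiable concentrates and diluted with water, were sprayed evenly over the soil surface at set doses in g/a. Herbicidal effect was scored on a rating scale three weeks later.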

wild oat [2] = experiment: as above; conditions: dose 3.2 g/a
Method in brief: as §1

posumbu knotweed [3] = experiment: as above; conditions: dose 3.2 g/a
Method in brief: as §1

velvetleaf [4] = experiment: as above; conditions: dose 3.2 g/a
Method in brief: as §1

large crabgrass [5] = experiment: as above; conditions: dose 3.2 g/a
Method in brief: as §1

water foxtail [6] = experiment: as above; conditions: dose 3.2 g/a
Method in brief: as §1

giant foxtail [7] = experiment: as above; conditions: dose 3.2 g/a
Method in brief: as §1

barnyardgrass [8] = experiment: as above; conditions: dose 3.2 g/a
Method in brief: as §1

redroot pigweed [9] = experiment: as above; conditions: dose 3.2 g/a
Method in brief: as §1

common lambsquater [10] = experiment: as above; conditions: dose 3.2 g/a
Method in brief: as §1

Italian ryegrass [11] = experiment: as above; conditions: dose 3.2 g/a
Method in brief: as §1

common ragweed [12] = experiment: as above; conditions: dose 3.2 g/a
Method in brief: as §1

ducksalad [13] = experiment: Test Example 2: herbicidal effects during the vegetation period under submerged conditions; conditions: treatment during the vegetation period under submerged conditions; dose 2.52 g/a
Method in brief: (§2)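 Barnyardgrass, bulrush and ducksalad were co-sown in alluvial soil flooded to 4 cm and grown in a greenhouse at 25 to 30° C. At the 1- or 2-leaf stage, water-diluted emulsifiable concentrates went onto the water surface at set doses (g/a). Herbicidal effect was scored three weeks later on a graded scale.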

barnyardgrass [14] = experiment: as above; conditions: treatment during the vegetation period under submerged conditions; dose 2.52 g/a
Method in brief: as §2

bulrush [15] = experiment: as above; conditions: treatment during the vegetation period under submerged conditions; dose 2.52 g/a
Method in brief: as §2

transplanted rice = experiment: Test Example 1: preemergence treatment under submerged conditions, effect on crop; conditions: dose 2.52 g/a
Method in brief: (§3)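 Scoring 0 (<5% mortality) to 5 (≥90%) was done three weeks after preemergence application to the water surface of submerged (4 cm) alluvial soil, doses given as g per are. Weeds were seeded and 2.5-leaf rice transplanted on the treatment day; greenhouse at 25–30 °C.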

common chickweed [16] = experiment: Test Example 4: herbicidal effect in foliage treatment; conditions: dose 3.2 g/a, three weeks after application
Method in brief: (§4)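 Sowing in sterilized diluvial soil, ~1.5 cm cover; growth 14 d, 25–30° C greenhouse; foliar spray of water-diluted EC at predetermined g/a; scoring 3 wk later on graded scale.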

wild oat [17] = experiment: as above; conditions: dose 3.2 g/a, three weeks after application
Method in brief: as §4

beadstraw = experiment: as above; conditions: dose 3.2 g/a, three weeks after application
Method in brief: as §4

posumbu knotweed [18] = experiment: as above; conditions: dose 3.2 g/a, three weeks after application
Method in brief: as §4

velvetleaf [19] = experiment: as above; conditions: dose 3.2 g/a, three weeks after application
Method in brief: as §4

large crabgrass [20] = experiment: as above; conditions: dose 3.2 g/a, three weeks after application
Method in brief: as §4

water foxtail [21] = experiment: as above; conditions: dose 3.2 g/a, three weeks after application
Method in brief: as §4

giant foxtail [22] = experiment: as above; conditions: dose 3.2 g/a, three weeks after application
Method in brief: as §4

barnyardgrass [23] = experiment: as above; conditions: dose 3.2 g/a, three weeks after application
Method in brief: as §4

redroot pigweed [24] = experiment: as above; conditions: dose 3.2 g/a, three weeks after application
Method in brief: as §4

common lambsquater [25] = experiment: as above; conditions: dose 3.2 g/a, three weeks after application
Method in brief: as §4

Italian ryegrass [26] = experiment: as above; conditions: dose 3.2 g/a, three weeks after application
Method in brief: as §4

common ragweed [27] = experiment: as above; conditions: dose 3.2 g/a, three weeks after application
Method in brief: as §4

ducksalad [28] = experiment: Test Example 1: herbicidal effects in preemergence treatment under submerged conditions; conditions: dose 2.52 g/a
Method in brief: as §3

barnyardgrass [29] = experiment: as above; conditions: dose 2.52 g/a
Method in brief: as §3

bulrush [30] = experiment: as above; conditions: dose 2.52 g/a
Method in brief: as §3

Row | Structure (SMILES) | N: common chickweed, herbicidal effect (evaluation scale 0-5) (common chickweed [1]) | F: wild oat, herbicidal effect (evaluation scale 0-5) (wild oat [2]) | M: posumbu knotweed, herbicidal effect (evaluation scale 0-5) (posumbu knotweed [3]) | I: velvetleaf, herbicidal effect (evaluation scale 0-5) (velvetleaf [4]) | D: large crabgrass, herbicidal effect (evaluation scale 0-5) (large crabgrass [5]) | G: water foxtail, herbicidal effect (evaluation scale 0-5) (water foxtail [6]) | E: giant foxtail, herbicidal effect (evaluation scale 0-5) (giant foxtail [7]) | A: barnyardgrass, herbicidal effect (evaluation scale 0-5) (barnyardgrass [8]) | K: redroot pigweed, herbicidal effect (evaluation scale 0-5) (redroot pigweed [9]) | L: common lambsquater, herbicidal effect (evaluation scale 0-5) (common lambsquater [10]) | H: Italian ryegrass, herbicidal effect (evaluation scale 0-5) (Italian ryegrass [11]) | J: common ragweed, herbicidal effect (evaluation scale 0-5) (common ragweed [12]) | C: ducksalad, herbicidal effect (evaluation scale 0-5) (ducksalad [13]) | A: barnyardgrass, herbicidal effect (evaluation scale 0-5) (barnyardgrass [14]) | B: bulrush, herbicidal effect (evaluation scale 0-5) (bulrush [15]) | a: transplanted rice, effect on crop (evaluation scale 0-5) (transplanted rice) | N: common chickweed, herbicidal effect (common chickweed [16]) | F: wild oat, herbicidal effect (wild oat [17]) | O: beadstraw, herbicidal effect (beadstraw) | M: posumbu knotweed, herbicidal effect (posumbu knotweed [18]) | also measured
1 | O=C1CC(c2ccccc2)OCN1Cc1ccccc1NS(=O)(=O)C(F)(F)F (stereo not shown) [II-9] | 3 (mortality of at least 40% and less than 70%) | 3 (mortality of at least 40% and less than 70%) | 5 (mortality of 90% or above (nearly complete death)) | 5 (mortality of 90% or above (nearly complete death)) | 5 (mortality of 90% or above (nearly complete death)) | 5 (mortality of 90% or above (nearly complete death)) | 4 (mortality of at least 70% and less than 90%) | 5 (mortality of 90% or above (nearly complete death)) | 0 (mortality of less than 5% (almost ineffective)) | 0 (mortality of less than 5% (almost ineffective)) | 4 (mortality of at least 70% and less than 90%) | 0 (mortality of less than 5% (almost ineffective)) | 5 (mortality of 90% or above (nearly complete death)) | 5 (mortality of 90% or above (nearly complete death)) | 5 (mortality of 90% or above (nearly complete death)) | 0 (mortality of less than 5% (almost ineffective)) | 3 (mortality of at least 40% and less than 70%) | 0 (mortality of less than 5% (almost ineffective)) | 4 (mortality of at least 70% and less than 90%) | 5 (mortality of 90% or above (nearly complete death)) | I: velvetleaf, herbicidal effect (velvetleaf [19]): 1 (mortality of at least 5% and less than 20%); D: large crabgrass, herbicidal effect (large crabgrass [20]): 0 (mortality of less than 5% (almost ineffective)); G: water foxtail, herbicidal effect (water foxtail [21]): 4 (mortality of at least 70% and less than 90%); E: giant foxtail, herbicidal effect (giant foxtail [22]): 4 (mortality of at least 70% and less than 90%); A: barnyardgrass, herbicidal effect (barnyardgrass [23]): 5 (mortality of 90% or above (nearly complete death)); K: redroot pigweed, herbicidal effect (redroot pigweed [24]): 0 (mortality of less than 5% (almost ineffective)); L: common lambsquater, herbicidal effect (common lambsquater [25]): 0 (mortality of less than 5% (almost ineffective)); H: Italian ryegrass, herbicidal effect (Italian ryegrass [26]): 1 (mortality of at least 5% and less than 20%); J: common ragweed, herbicidal effect (common ragweed [27]): 3 (mortality of at least 40% and less than 70%); C: ducksalad, herbicidal effect (evaluation scale 0-5) (ducksalad [28]): 5 (mortality of 90% or above (nearly complete death)); A: barnyardgrass, herbicidal effect (evaluation scale 0-5) (barnyardgrass [29]): 5 (mortality of 90% or above (nearly complete death)); B: bulrush, herbicidal effect (evaluation scale 0-5) (bulrush [30]): 5 (mortality of 90% or above (nearly complete death))
2 | CCCOC(=O)N(c1ccccc1CN1COC(c2ccccc2)CC1=O)S(=O)(=O)C(F)(F)F (stereo not shown) [II-11] | 3 (mortality of at least 40% and less than 70%) | 0 (mortality of less than 5% (almost ineffective)) | 0 (mortality of less than 5% (almost ineffective)) | 5 (mortality of 90% or above (nearly complete death)) | 3 (mortality of at least 40% and less than 70%) | 4 (mortality of at least 70% and less than 90%) | 4 (mortality of at least 70% and less than 90%) | 3 (mortality of at least 40% and less than 70%) | 0 (mortality of less than 5% (almost ineffective)) | 0 (mortality of less than 5% (almost ineffective)) | 3 (mortality of at least 40% and less than 70%) | 2 (mortality of at least 20% and less than 40%) | 5 (mortality of 90% or above (nearly complete death)) | 5 (mortality of 90% or above (nearly complete death)) | 5 (mortality of 90% or above (nearly complete death)) | 0 (mortality of less than 5% (almost ineffective)) | 4 (mortality of at least 70% and less than 90%) | 0 (mortality of less than 5% (almost ineffective)) | 4 (mortality of at least 70% and less than 90%) | 3 (mortality of at least 40% and less than 70%) | I: velvetleaf, herbicidal effect (velvetleaf [19]): 4 (mortality of at least 70% and less than 90%); D: large crabgrass, herbicidal effect (large crabgrass [20]): 2 (mortality of at least 20% and less than 40%); G: water foxtail, herbicidal effect (water foxtail [21]): 3 (mortality of at least 40% and less than 70%); E: giant foxtail, herbicidal effect (giant foxtail [22]): 2 (mortality of at least 20% and less than 40%); A: barnyardgrass, herbicidal effect (barnyardgrass [23]): 4 (mortality of at least 70% and less than 90%); K: redroot pigweed, herbicidal effect (redroot pigweed [24]): 0 (mortality of less than 5% (almost ineffective)); L: common lambsquater, herbicidal effect (common lambsquater [25]): 2 (mortality of at least 20% and less than 40%); H: Italian ryegrass, herbicidal effect (Italian ryegrass [26]): 1 (mortality of at least 5% and less than 20%); J: common ragweed, herbicidal effect (common ragweed [27]): 4 (mortality of at least 70% and less than 90%); C: ducksalad, herbicidal effect (evaluation scale 0-5) (ducksalad [28]): 5 (mortality of 90% or above (nearly complete death)); A: barnyardgrass, herbicidal effect (evaluation scale 0-5) (barnyardgrass [29]): 5 (mortality of 90% or above (nearly complete death)); B: bulrush, herbicidal effect (evaluation scale 0-5) (bulrush [30]): 5 (mortality of 90% or above (nearly complete death))
